The target in one data set is Cytochrome P450 2C9 (Homo sapiens, UniProt P11712).
Data set [1] concerns the target T1, Bifunctional epoxide hydrolase 2 (Homo sapiens, UniProt P34913).
T1 sequence (P34913 whole entry): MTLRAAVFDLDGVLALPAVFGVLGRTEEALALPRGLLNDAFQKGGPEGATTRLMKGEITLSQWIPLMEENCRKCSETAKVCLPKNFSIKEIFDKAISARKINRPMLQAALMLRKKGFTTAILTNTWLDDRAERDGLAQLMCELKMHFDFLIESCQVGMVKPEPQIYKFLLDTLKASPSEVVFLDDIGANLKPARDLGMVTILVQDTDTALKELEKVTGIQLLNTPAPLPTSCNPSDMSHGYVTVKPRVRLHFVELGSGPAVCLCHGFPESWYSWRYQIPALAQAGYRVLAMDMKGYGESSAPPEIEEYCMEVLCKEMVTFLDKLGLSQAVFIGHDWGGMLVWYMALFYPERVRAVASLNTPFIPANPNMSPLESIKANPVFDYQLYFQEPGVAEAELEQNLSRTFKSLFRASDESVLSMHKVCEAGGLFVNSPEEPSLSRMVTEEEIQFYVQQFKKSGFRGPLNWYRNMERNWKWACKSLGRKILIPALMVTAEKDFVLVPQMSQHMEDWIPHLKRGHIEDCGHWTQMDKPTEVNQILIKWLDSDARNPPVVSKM
Description: Inhibition of human soluble epoxide hydrolase using PHOME as substrate assessed as formation of 6-methoxy-2-naphthaldehyde incubated for 10 mins prior to substrate addition measured with in 30 mins by fluorescence assay

Data set [2] is described as follows: Plasma clearance in rat at 1 mg/kg, iv. In kind it is ADME, organism-based. Also on record: dose 1 mg/kg, route intravenous.
Data set [3] addresses T1, Bifunctional epoxide hydrolase 2. The source holds these as a separate data set.
Description: Inhibition of human soluble epoxide hydrolase overexpressed in HEK293F cells using EET as substrate assessed as formation of DHET incubated for 30 mins prior to substrate addition measured after 60 mins by ELISA
A short description of data set [4]: Fraction unbound in rat plasma. In kind it is ADME, cell-free.

SMILES strings stand for the structures. pIC50: −log10 of the molar value. Some results are limits rather than exact numbers.

Sequence of Cytochrome P450 2C9 (P11712 whole entry): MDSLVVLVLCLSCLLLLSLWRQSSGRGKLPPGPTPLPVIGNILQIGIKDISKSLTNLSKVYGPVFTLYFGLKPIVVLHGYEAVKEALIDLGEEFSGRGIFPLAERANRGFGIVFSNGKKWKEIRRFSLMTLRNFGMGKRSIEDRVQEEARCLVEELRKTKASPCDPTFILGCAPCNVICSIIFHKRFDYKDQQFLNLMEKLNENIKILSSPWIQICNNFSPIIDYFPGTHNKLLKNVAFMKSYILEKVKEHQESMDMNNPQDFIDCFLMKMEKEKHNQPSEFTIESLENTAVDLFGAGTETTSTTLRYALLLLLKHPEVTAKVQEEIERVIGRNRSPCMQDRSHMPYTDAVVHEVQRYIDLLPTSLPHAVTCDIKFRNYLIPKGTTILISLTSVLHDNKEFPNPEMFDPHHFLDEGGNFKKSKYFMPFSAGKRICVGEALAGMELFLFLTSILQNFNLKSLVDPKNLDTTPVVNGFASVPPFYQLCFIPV
Description for Cytochrome P450 2C9: Inhibition of CYP2C9 (unknown origin)

What is called pIC50 is the IC50 on a negative log10 scale, so that one unit is a factor of ten. For `CNc1nc(C)nc(N2CCC(C(=O)NCc3cccc(OC(F)(F)F)c3)CC2)n1`, the pIC50 at Cytochrome P450 2C9 was < 4.60; in data set [1] it was 6.20.

For the molecule `CNc1cc(N2CCC(C(=O)NCc3ccccc3C(F)(F)F)CC2)cc(C)n1`, the pIC50 was < 4.60 against Cytochrome P450 2C9 and 6.90 in data set [1].

In the case of `CNc1nc(C)nc(N2CCC(C(=O)NCc3ccccc3C#N)CC2)n1`, the pIC50 against Cytochrome P450 2C9 is < 4.60; in data set [1], 7.10.

`CNc1cc(C)nc(N2CCC(C(=O)NCc3ccccc3C(F)(F)F)CC2)n1`: the pIC50 against Cytochrome P450 2C9 is < 4.60; in data set [1] it was 6.80.

The clearance is a measure of how efficiently the substance is removed, as volume per time. Molecule `CNc1nc(N(C)CCN(C)C)nc(N2CCC(C(=O)NCc3ccccc3C(F)(F)F)CC2)n1` came in with a clearance in data set [2] of 140 mL/min/kg. In addition, the pIC50 on Cytochrome P450 2C9 was 4.77; in data set [1], 7.10.

For the molecule `CNc1nc(C)nc(N2CCC(C(=O)NCc3ccc(OC)cc3C(F)(F)F)CC2)n1`, in data set [2], the clearance was 7 mL/min/kg. Moreover, the pIC50 was < 4.60 at Cytochrome P450 2C9, 8.70 in data set [3] and 9.00 in data set [1].

For `CNc1cc(C)nc(N2CCC(C(=O)NCc3ccccc3C(F)(F)F)CC2)c1`, the pIC50 on Cytochrome P450 2C9 is < 4.60; in data set [1], 5.80.

In data set [2], `CNc1cc(N2CCC(C(=O)NCc3ccccc3C(F)(F)F)CC2)nc(C)n1` came in with a clearance of 73 mL/min/kg. Besides, the pIC50 is 6.00 on Cytochrome P450 2C9, 7.10 in data set [3] and 8.30 in data set [1].

As to `CNc1nc(C)nc(N2CCC(C(=O)NCc3ccccc3)CC2)n1`, the values for the pIC50 (against Cytochrome P450 2C9; in data set [1]) were < 4.60 and 6.70, respectively.

As to `CNc1nc(C)cc(N2CCC(C(=O)NCc3ccccc3C(F)(F)F)CC2)n1`, the results for the pIC50 (at Cytochrome P450 2C9; in data set [1]) were < 4.60 and 7.40, respectively.

One may read the fraction unbound as free concentration divided by total concentration. Higher therefore signals much free substance. Regarding `CNc1nc(-c2ccccc2)nc(N2CCC(C(=O)NCc3ccccc3C(F)(F)F)CC2)n1`, the clearance in data set [2] turned out to be 3 mL/min/kg. The same molecule displayed a fraction unbound in data set [4] of 0.015. Moreover, the pIC50 at Cytochrome P450 2C9 was 5.74; in data set [3] it was 7.20; in data set [1], 9.00.

`CNc1cc(C)cc(N2CCC(C(=O)NCc3ccccc3C(F)(F)F)CC2)n1` yielded a clearance in data set [2] of 61 mL/min/kg. Besides, the figures for the negative-log IC50 (pIC50) (at Cytochrome P450 2C9; in data set [3]; in data set [1]) were 4.96, 7.00 and 8.00, respectively.

For the molecule `CCc1nc(NC)nc(N2CCC(C(=O)NCc3ccccc3C(F)(F)F)CC2)n1`, the results for the pIC50 (on Cytochrome P450 2C9; in data set [3]; in data set [1]) were 5.02, 7.10 and 8.40, respectively.

Regarding `COCCNc1nc(C)nc(N2CCC(C(=O)NCc3ccccc3C(F)(F)F)CC2)n1`, the clearance in data set [2] was determined as 27 mL/min/kg. Also, the values for the pIC50 (at Cytochrome P450 2C9; in data set [3]; in data set [1]) were 5.74, 9.00 and 9.00, respectively.

Consider `CNc1cc(C)cc(N2CCC(C(=O)NCc3ccccc3C(F)(F)F)CC2)c1`, for which the pIC50 at Cytochrome P450 2C9 is 5.70; in data set [1], 7.49.

In the case of `CNc1nc(C)nc(N2CCC(C(=O)NCc3ccccc3C)CC2)n1`, the pIC50 against Cytochrome P450 2C9 was < 4.60; in data set [1], 6.70.

Take `CNc1nc(C)nc(N2CCC(C(=O)NCc3ccccc3C(F)(F)F)CC2)n1`: the clearance in data set [2] is 51 mL/min/kg. Further, the pIC50 at Cytochrome P450 2C9 was 4.60; in data set [3], 7.00; in data set [1], 8.52.

Molecule `CNc1nc(C)nc(N2CCC(C(=O)NCc3ccccc3OC(F)(F)F)CC2)n1` yielded a clearance in data set [2] of 44 mL/min/kg. Besides, the pIC50 was < 4.60 on Cytochrome P450 2C9, 8.52 in data set [3] and 9.00 in data set [1].

Regarding `CNc1nc(N2CCC(C(=O)NCc3ccccc3C(F)(F)F)CC2)nc(N2CCN(C)CC2)n1`, in data set [2], the clearance was 46 mL/min/kg.

In the case of `Cc1nc(N2CCOCC2)nc(N2CCC(C(=O)NCc3ccccc3C(F)(F)F)CC2)n1`, the negative-log IC50 (pIC50) on Cytochrome P450 2C9 was 6.40; in data set [3], 8.52; in data set [1] it was 9.00.

As for `Cc1nc(NC(C)C)nc(N2CCC(C(=O)NCc3ccccc3C(F)(F)F)CC2)n1`, the pIC50 at Cytochrome P450 2C9 is 6.40; in data set [3], 8.00; in data set [1] it was 9.00.

As for `CNc1nc(C2CCCCC2)nc(N2CCC(C(=O)NCc3ccccc3C(F)(F)F)CC2)n1`, the pIC50 was 7.20 at Cytochrome P450 2C9 and 9.00 in data set [1].

With `CNc1nc(C)nc(N2CCC(C(=O)NCc3ccccc3OC)CC2)n1`, the pIC50 against Cytochrome P450 2C9 was < 4.60; in data set [1] it was 5.80.

As for `CNc1nc(NC)nc(N2CCC(C(=O)NCc3ccccc3C(F)(F)F)CC2)n1`, the clearance in data set [2] was 79 mL/min/kg. Besides, the figures for the pIC50 (against Cytochrome P450 2C9; in data set [3]; in data set [1]) were 4.60, 7.00 and 7.70, respectively.

Consider `CNc1nc(C)nc(N2CCC(C(=O)NCc3ccc(OC(F)(F)F)cc3)CC2)n1`, for which the pIC50 on Cytochrome P450 2C9 is < 4.60; in data set [1], 6.40.

With `CNc1nc(C)nc(N2CCC(C(=O)NCc3ccc(F)cc3C(F)(F)F)CC2)n1`, the values for the pIC50 (against Cytochrome P450 2C9; in data set [3]; in data set [1]) were < 4.60, 7.30 and 8.52, respectively.

Source of the values: ChEMBL document CHEMBL2390902, “Discovery of 1-(1,3,5-triazin-2-yl)piperidine-4-carboxamides as inhibitors of soluble epoxide hydrolase” (Bioorg Med Chem Lett, 2013).
